In patent US12582652B2, “3-(ethoxydifluoromethyl)-6-(5-fluoro-6-(2,2,2-trifluoroethoxy)pyridin-3-yl)-[1,2,4]triazolo[4,3-a]pyrazine as an ion channel modulator” (Praxis Precision Medicines, Inc., priority 2022, dated 2026):

What was measured:
hNaV1.2 = hNaV1.2 (Homo sapiens, UniProt Q99250); test: Peak INa voltage-dependent block, patch clamp; format: cell-based
Procedure: (§1) Voltage Dependent Block (VDB): VDB protocols used a depolarized voltage to keep channels in half-inactivated (resting) states. This allowed equilibrium binding and accurate determination of isoform selectivity (in the absence of biological features). For each cell, the midpoint of inactivation (V0.5) was determined using a 5,000 ms step to increase voltages (10 mV increments) to inactivate the channel immediately followed by a 2 ms step to 0 mV to maximally activate the channels. The holding potential (Vhold) was −120 mV between steps. The peak INa measured in response to the step to 0 mV was plotted and fitted with a Boltzmann equation to determine the V0.5. This value was then used for the VDB protocol. Pharmacology was measured during peak INa in response to step to 0 mV. No leak subtraction was used.

hNaV1.1 = hNaV1.1 (Homo sapiens, UniProt P35498); test: Peak INa voltage-dependent block, patch clamp; format: cell-based
Procedure: as §1

hNaV1.5 = hNaV1.5 (Homo sapiens, UniProt Q14524); test: Peak INa voltage-dependent block, patch clamp; format: cell-based
hNaV1.5, sequence (Q14524 1-2015 isoform Q14524-2): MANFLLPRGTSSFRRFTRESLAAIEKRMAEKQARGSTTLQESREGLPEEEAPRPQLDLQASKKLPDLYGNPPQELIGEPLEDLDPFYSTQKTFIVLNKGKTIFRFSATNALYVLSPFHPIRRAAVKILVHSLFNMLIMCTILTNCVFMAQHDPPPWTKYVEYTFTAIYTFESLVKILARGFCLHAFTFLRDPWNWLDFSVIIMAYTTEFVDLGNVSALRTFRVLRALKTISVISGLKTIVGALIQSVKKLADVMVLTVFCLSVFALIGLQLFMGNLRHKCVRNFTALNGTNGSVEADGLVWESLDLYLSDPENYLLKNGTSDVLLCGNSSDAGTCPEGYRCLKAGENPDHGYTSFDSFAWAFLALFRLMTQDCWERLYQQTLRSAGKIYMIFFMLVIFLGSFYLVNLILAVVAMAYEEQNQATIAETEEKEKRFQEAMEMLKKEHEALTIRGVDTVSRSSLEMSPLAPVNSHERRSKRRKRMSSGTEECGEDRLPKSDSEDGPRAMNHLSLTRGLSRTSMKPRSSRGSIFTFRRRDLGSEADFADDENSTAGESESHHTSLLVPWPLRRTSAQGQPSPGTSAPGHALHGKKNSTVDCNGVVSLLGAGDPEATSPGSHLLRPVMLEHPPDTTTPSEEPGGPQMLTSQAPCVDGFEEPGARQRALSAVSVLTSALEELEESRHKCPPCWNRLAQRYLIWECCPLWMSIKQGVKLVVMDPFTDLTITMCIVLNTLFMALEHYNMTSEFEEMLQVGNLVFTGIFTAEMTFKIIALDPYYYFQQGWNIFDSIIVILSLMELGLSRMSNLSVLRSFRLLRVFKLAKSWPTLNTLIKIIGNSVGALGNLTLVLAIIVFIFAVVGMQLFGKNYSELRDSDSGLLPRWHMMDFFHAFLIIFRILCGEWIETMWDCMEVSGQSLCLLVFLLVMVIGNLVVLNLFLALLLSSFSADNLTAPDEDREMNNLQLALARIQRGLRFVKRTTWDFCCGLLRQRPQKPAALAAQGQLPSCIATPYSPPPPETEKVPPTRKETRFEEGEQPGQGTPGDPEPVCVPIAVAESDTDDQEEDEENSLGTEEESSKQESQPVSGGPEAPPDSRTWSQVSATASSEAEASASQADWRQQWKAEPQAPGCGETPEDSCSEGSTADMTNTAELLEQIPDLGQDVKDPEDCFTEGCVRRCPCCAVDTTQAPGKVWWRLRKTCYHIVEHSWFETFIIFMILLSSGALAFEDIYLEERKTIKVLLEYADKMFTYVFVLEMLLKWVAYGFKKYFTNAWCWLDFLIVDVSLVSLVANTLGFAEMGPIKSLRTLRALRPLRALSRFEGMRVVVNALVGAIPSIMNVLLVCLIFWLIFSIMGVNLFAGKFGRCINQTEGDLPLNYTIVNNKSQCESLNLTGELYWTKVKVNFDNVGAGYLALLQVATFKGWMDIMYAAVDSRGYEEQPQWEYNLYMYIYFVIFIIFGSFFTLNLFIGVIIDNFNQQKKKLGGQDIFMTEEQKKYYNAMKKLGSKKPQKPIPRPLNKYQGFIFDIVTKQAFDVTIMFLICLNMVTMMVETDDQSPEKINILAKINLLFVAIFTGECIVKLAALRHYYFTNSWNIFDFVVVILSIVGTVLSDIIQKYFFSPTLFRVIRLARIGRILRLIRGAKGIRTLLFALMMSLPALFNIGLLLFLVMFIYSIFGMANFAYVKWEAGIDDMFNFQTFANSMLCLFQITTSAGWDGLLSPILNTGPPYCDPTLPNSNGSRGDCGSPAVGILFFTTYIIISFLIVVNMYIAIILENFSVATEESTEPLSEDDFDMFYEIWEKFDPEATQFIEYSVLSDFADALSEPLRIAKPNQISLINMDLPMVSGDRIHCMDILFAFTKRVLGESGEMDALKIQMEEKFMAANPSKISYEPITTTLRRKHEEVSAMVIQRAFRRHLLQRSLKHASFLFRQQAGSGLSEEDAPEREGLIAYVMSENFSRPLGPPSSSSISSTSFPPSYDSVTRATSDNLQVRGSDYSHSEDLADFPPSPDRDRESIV
Procedure: as §1

[1] = test system: Scn2a^Q54 transgenic mice; test: Spontaneous seizure frequency in Scn2aQ54 mouse model of elevated persistent sodium current; format: in vivo
Description: Scn2a^Q54 transgenic mice were generated as described and are maintained as a congenic line on the C57BL/6J (Jax #000664) background (B6.Q54) (Kearney et al., 2001; PMID 11166117). For experiments, F1 generation mice were produced by crossing B6.Q54 hemizygous transgenic males with SJL/J (Jax #000686) females and genotyping for the Scn2a^Q54 transgene. Experimental animals used in this study were male and female postnatal day 18-21 (P18-21) mice, with the majority being P19-P20.
Dosing solutions were freshly formulated on the morning on the study. Dosing solution contained 0.5% methylcellulose with 0.2% Tween-80 was made with 1 mL 10% Tween-80 (in ddH20) and 49 mL 0.5% methylcellulose (in ddH20) either with or without (vehicle) Compound 1 (0.3 mg/kg, 1 mg/kg, 3 mg/kg, or 10 mg/kg). Each animal received a single administration of vehicle or Compound 1 by oral gavage.
For seizure monitoring, two mice were placed into a monitoring cage (23 cm×13 cm) and two side-view cameras were placed to record baseline spontaneous seizure activity. […] After the 30-minute recording, mice were administered Compound 1 or vehicle and returned to their home cage. After 30 minutes, the two mice were returned to the monitoring cage and recorded for an additional 30 minutes to assess post-treatment seizure activity. The number of focal motor seizures with forelimb clonus and repetitive movements lasting 1-5 seconds, and generalized tonic-clonic seizures (GTCS) with rearing and falling lasting approximately 1 minute were counted. Seizures were scored offline by an observer blinded to treatment and pre/post status of the video file.
The numbers of seizures before and after treatment were counted for each animal by a reviewer blinded to treatment and pre/post status of the video record. Mice that had less than three seizures or more than 35 seizures during the baseline period were excluded from the analysis as pre-defined in the study design. Statistical analysis was conducted using two-way repeated measures ANOVA and Sidak's multiple comparisons, with p<0.05 considered statistically significant (GraphPad Prism 8.4). Change in average seizure frequency was determined by averaging each group and then computing relative change as [(avg. post−avg. pre)/avg. pre], expressed as a percentage.

hNaV1.2, sequence (Q99250 whole entry, canonical isoform): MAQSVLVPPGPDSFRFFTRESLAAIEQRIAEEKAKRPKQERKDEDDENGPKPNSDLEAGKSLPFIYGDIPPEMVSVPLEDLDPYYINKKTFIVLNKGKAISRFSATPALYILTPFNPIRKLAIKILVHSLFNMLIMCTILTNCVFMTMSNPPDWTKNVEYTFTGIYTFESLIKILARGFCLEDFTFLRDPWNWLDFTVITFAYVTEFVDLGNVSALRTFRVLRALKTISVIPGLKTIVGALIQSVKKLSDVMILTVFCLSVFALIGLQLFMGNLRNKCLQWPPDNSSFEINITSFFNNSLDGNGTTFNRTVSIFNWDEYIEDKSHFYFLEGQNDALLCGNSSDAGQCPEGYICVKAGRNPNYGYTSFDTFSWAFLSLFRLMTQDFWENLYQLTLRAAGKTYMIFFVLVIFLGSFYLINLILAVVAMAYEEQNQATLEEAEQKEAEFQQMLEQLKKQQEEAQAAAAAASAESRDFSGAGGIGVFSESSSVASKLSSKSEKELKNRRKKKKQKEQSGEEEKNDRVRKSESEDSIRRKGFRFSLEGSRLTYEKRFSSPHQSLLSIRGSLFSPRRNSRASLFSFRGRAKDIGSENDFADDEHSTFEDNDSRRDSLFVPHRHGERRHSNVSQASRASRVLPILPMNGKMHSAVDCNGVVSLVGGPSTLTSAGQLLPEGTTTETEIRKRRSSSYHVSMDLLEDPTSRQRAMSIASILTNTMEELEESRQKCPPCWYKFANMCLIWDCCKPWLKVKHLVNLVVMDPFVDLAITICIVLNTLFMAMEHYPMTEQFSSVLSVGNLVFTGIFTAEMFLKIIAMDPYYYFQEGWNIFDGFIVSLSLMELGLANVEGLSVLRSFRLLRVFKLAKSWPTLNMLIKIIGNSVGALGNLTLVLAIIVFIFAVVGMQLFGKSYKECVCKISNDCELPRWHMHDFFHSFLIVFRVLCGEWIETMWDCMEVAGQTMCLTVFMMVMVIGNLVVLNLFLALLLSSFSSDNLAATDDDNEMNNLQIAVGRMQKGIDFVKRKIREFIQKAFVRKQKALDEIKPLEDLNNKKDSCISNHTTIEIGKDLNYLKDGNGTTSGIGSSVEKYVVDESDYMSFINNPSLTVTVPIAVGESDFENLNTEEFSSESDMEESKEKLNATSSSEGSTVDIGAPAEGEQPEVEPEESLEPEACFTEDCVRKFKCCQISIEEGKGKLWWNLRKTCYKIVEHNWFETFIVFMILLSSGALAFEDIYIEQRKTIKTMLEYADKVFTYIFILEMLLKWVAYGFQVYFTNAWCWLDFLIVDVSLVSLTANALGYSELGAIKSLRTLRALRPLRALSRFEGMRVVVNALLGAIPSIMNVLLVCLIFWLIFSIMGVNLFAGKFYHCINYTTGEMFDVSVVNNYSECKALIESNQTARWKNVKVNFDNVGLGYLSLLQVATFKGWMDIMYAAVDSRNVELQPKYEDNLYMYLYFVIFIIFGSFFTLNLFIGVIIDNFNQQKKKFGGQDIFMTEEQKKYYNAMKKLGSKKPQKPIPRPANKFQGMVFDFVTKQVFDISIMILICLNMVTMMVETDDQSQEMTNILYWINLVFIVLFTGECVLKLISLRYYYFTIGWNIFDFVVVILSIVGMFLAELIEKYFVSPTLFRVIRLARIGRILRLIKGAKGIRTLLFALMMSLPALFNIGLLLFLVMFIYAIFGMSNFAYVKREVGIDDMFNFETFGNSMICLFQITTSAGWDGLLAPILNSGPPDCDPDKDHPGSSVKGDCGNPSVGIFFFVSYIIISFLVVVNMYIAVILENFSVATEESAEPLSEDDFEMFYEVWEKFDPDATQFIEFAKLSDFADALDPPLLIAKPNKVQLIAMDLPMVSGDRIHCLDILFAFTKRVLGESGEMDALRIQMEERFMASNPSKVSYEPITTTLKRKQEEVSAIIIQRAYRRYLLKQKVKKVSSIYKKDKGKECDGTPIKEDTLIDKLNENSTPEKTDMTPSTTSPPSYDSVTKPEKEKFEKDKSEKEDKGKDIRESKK

Q: With `CCOC(F)(F)c1nnc2cnc(-c3cnc(OCC(F)(F)F)c(F)c3)cn12` [Compound 1, 3-(ethoxydifluoromethyl)-6-(5-fluoro-6-(2,2,2-trifluoroethoxy)pyridin-3-yl)-[1,2,4]triazolo[4,3-a]pyrazine] as the molecule, how does the “preference for persistent INa over peak INa voltage-dependent block” value (hNaV1.2) read?
A: 8.2 fold

Q: And the “preference for persistent INa over peak INa voltage-dependent block” value (hNaV1.1)?
A: 6.3 fold

Q: And the “preference for persistent INa over peak INa voltage-dependent block” value (hNaV1.5)?
A: 5.8 fold

Q: What about the “mice showing seizures after dosing” value ([1]; 10 mg/kg) of the same molecule?
A: no mice showing any seizures

Q: And the “seizure frequency compared to pre-treatment baseline” value ([1]; 1, 3 and 10 mg/kg p.o., 30 min after treatment)?
A: significant reduction

Q: And the “protection from spontaneous seizures (FIG. 14A)” value ([1]; Scn2a Q54 DEE mouse model)?
A: completely block seizures

Q: And the “reduction in seizure frequency” value ([1]; doses of 1 mg/kg and above)?
A: 50%
